# Results as given in the supplement of paper PMC10307832.
# Assays:
# Test in all cases: relative viability (nuclei count vs DMSO), 5 days (fraction); higher = more cells survive
# [1] = compound: COc1cc2nccc(Oc3ccc(NC(=O)C4(C(=O)Nc5ccc(F)cc5)CC4)cc3)c2cc1OC [Cabozantinib] + C[C@]1(O)C[C@@H](c2nc(-c3ccc4ccc(-c5ccccc5)nc4c3)c3c(N)nccn32)C1 [Linsitinib] (partner 1 µM)
# Method in brief: (§1)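 Lung cancer cell lines were pin-tool dosed in 1536-well plates on the day after seeding, with either a lone drug or a fixed anchor-drug dose plus five library-drug doses (not always all listed) in √10 steps. Nuclei were counted on 4× images after 5 days. Relative viability is the ratio of treated-well to vehicle-well nuclei counts, with each value a median of duplicate plates.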
# Zosuquidar + Tozasertib = compound: O[C@@H](COc1cccc2ncccc12)CN1CCN([C@@H]2c3ccccc3[C@@H]3[C@H](c4ccccc42)C3(F)F)CC1 [Zosuquidar] + Cc1cc(Nc2cc(N3CCN(C)CC3)nc(Sc3ccc(NC(=O)C4CC4)cc3)n2)n[nH]1 [Tozasertib] (partner 0.1 µM)
# Method in brief: as §1
# [2] = compound: COc1cc2nccc(Oc3ccc(NC(=O)C4(C(=O)Nc5ccc(F)cc5)CC4)cc3)c2cc1OC [Cabozantinib] + CC(=O)Nc1cccc(-n2c(=O)n(C3CC3)c(=O)c3c(Nc4ccc(I)cc4F)n(C)c(=O)c(C)c32)c1 [Trametinib] (partner 0.02 µM)
# Method in brief: as §1
# Cabozantinib + Alpelisib = compound: COc1cc2nccc(Oc3ccc(NC(=O)C4(C(=O)Nc5ccc(F)cc5)CC4)cc3)c2cc1OC [Cabozantinib] + Cc1nc(NC(=O)N2CCC[C@H]2C(N)=O)sc1-c1ccnc(C(C)(C)C(F)(F)F)c1 [Alpelisib] (partner 2 µM)
# Method in brief: as §1
cell line,measurement,setting,value
UMC-11,relative viability,[1]; first compound 0.02 µM,1.12
same,relative viability,[1]; first compound 0.06325 µM,1.04
same,relative viability,[1]; first compound 0.2 µM,1.03
same,relative viability,[1]; first compound 0.6325 µM,0.98
same,relative viability,[1]; first compound 2 µM,1.05
same,relative viability,Zosuquidar + Tozasertib; first compound 0.01 µM,0.207
same,relative viability,Zosuquidar + Tozasertib; first compound 0.03162 µM,0.194
same,relative viability,Zosuquidar + Tozasertib; first compound 0.1 µM,0.201
same,relative viability,Zosuquidar + Tozasertib; first compound 0.3162 µM,0.208
same,relative viability,Zosuquidar + Tozasertib; first compound 1 µM,0.194
same,relative viability,[2]; first compound 0.02 µM,0.666
same,relative viability,[2]; first compound 0.06325 µM,0.808
same,relative viability,[2]; first compound 0.2 µM,0.782
same,relative viability,[2]; first compound 0.6325 µM,0.548
same,relative viability,[2]; first compound 2 µM,0.69
same,relative viability,Cabozantinib + Alpelisib; first compound 0.02 µM,0.848
same,relative viability,Cabozantinib + Alpelisib; first compound 0.06325 µM,1.1
same,relative viability,Cabozantinib + Alpelisib; first compound 0.2 µM,1.01
same,relative viability,Cabozantinib + Alpelisib; first compound 0.6325 µM,1.05
same,relative viability,Cabozantinib + Alpelisib; first compound 2 µM,1.02
